US20120202272A1, “LIGE-TYPE SYSTEMS FOR BIOCONVERSION OF LIGNIN-DERIVED COMPOUNDS” (priority 2010, published 2012)

Legend:
Escherichia coli = conditions: stated as demonstrated; cited from earlier work
[1] = in vitro biochemical assay for beta-etherase activity on fluorescent substrate MUAV (4MU formation, clarified E. coli cell extracts)
From the text: The model substrate synthesis 150 for use in the biochemical screening for selective activity can be outsourced through a contract research organization (CRO). The enzyme discovery effort can initially be focused on identifying potential beta-etherase candidate genes identified through bioinformatic methods. […] The fluorescent substrate α-O-(β-methylumbelliferyl)acetovanillone (MUAV), for example, can be used in in vitro assays to identify beta-etherase function (Acme Biosciences, Mt. View, Calif.). The formation of 4 methylumbelliferone (4MU) upon hydrolysis of the aryl ether bond can be monitored by fluorescence, for example, at λex=365 nm and λem=450 nm (or 460 nm).
The enzyme screening 155 is done to identify novel etherases 160. […] Expression of the beta-etherase genes can be done in 5 ml or 25 ml samples of the recombinant E. coli strains in LB medium using induction with IPTG. Following induction, and cell harvest, cell pellets can be lysed using the BPER (Invitrogen) cell lysis system. […] The formation of 4 methylumbelliferone (4MU) upon hydrolysis of the aryl ether bond in MUAV can be monitored by fluorescence at λex=365 nm and λem=460 nm, and can provide quantitative measurement of beta-etherase function. Cell extracts of E. coli transformed with the S. paucimobilis ligE and ligF genes can be the assay positive controls. Test or unknown samples can include, for example, E. coli strains expressing putative beta-etherase genes from N. aromaticovorans.
This example describes a method for gene expression in E. coli, as well as beta-etherase biochemical assays. Expression of known and putative beta-etherase genes was performed using 5 ml cultures of the recombinant E. coli strains described herein in Luria Broth medium by induction of gene expression using isopropylthiogalactoside (IPTG) to a final concentration of 0.1 mM. Following induction, and cell harvest, the cells were disrupted using either sonication or the BPER (Invitrogen) cell lysis system.
In vitro reactions were performed in a total volume of 200 ul and contained: 25 mM TrisHCl pH 7.5; 0.5 mM dithiothreitol; 1 mM glutathione; 0.05 mM or 0.1 mM MUAV; 10 ul of clarified cell extract used to initiate the reactions. Following incubation for 2.5 hours at room temperature, a 50 ul sample of the reactions was terminated using 150 uL of 300 mM glycine/NaOH buffer pH 9. The formation of 4 methylumbelliferone (4MU) upon hydrolysis of the aryl ether bond was monitored by the increase in fluorescence at λex=360 nm and λem=450 nm using a Spectramax UV/visible/fluorescent spectrophotometer.
The total protein concentrations of the cell lysates were determined using the BCA reagent system for protein quantification (Pierce).
Induction might be also performed using IPTG concentrations in the range of 0.01-1 mM. Cell disruption might be also performed using toluene permeabilization, French pressure techniques, or using multiple freeze/thaw cycles in conjunction with lysozyme. Assay conditions might be varied to include TrisHCl at 10-150 mM concentrations and in the pH range of 6.5-8.5; 0-2 mM dithiothreitol; 0.05-2 mM glutathione; 0.01-5 mM MUAV substrate; 22-42° C. reaction temperatures. The biochemical assay might be performed as a fixed time point assay with reaction times ranging from 5 minutes-12 hours, or performed continuously without quenching with glycine/NaOH buffer to extract enzyme kinetic parameters.

[2] = reactions containing 0.1 mM MUAV substrate, E. coli cell extracts
[3] = MUAV substrate, concentration not given

Row | Molecule | antibacterial activity against Escherichia coli (Escherichia coli) | also measured
1 | O=Cc1cc(O)ccc1O [2,5-dihydroxybenzaldehyde] | antibacterial activity | 
2 | COc1cc(O)cc(OC)c1C=O [4-hydroxy-2,6-dimethoxybenzaldehyde] | antibacterial activity | 
3 | O=Cc1ccc(O)cc1O [2,4-dihydroxybenzaldehyde] | antibacterial activity | 
4 | O=Cc1cccc(O)c1O [2,3-dihydroxybenzaldehyde] | antibacterial activity | 
5 | COc1ccc(O)c(C=O)c1 [2-hydroxy-5-methoxybenzaldehyde] | antibacterial activity | 
6 | O=Cc1ccc(O)c(O)c1O [2,3,4-trihydroxybenzaldehyde] | antibacterial activity | 
7 | COc1cccc(C=O)c1O [2-hydroxy-3-methoxybenzaldehyde] | antibacterial activity | 
8 | O=Cc1c(O)cc(O)cc1O [2,4,6-trihydroxybenzaldehyde] | antibacterial activity | 
9 | O=Cc1ccccc1O [2-hydroxybenzaldehyde] | antibacterial activity | 
10 | ligE1: N. aromaticivorans beta-etherase polypeptide, glutathione S-transferase-like protein, GenBank ABD26841.1 (protein) MAANNTITFYDLALSTGATISPFVWATKYALKHKGFDLDVVPGGFTGILERTGGKTERLPAIVDDGEFVLDSWGIVEYLDAKYPDRPVLIPHESVAATLKALDNWFWNAAVGPWMFCFCQDYRDLSLPQDHEYVTHSREKMLGRKLEEVQAGREERLPKISAALEPLRAALAQHQWLGGSSPNYADYRIMGGILFTASVCKTPVLANDDPLRDWIERCLDLYGGLGRHPGLFPLFGLEQREGDPDLFNRAAGQGGIYKRNTGPESTRAETQRITEGMKK |  | beta-etherase activity (in words) ([1]; MUAV substrate): beta-etherase activity; efficiency relative to S. paucimobilis ligE beta-etherase enzyme ([1]; MUAV substrate): approximately 75 fold; total activity (beta-etherase) [1, 2]: 529 rfu/ug
11 | ligE: S. paucimobilis ligE beta-etherase, positive control polypeptide (protein) MARNNTITLYDLQLESGCTISPYVWRTKYALKHKGFDIDIVPGGFTGILERTGGRSERVPVIVDDGEWVLDSWVIAEYLDEKYPDRPMLFEGPTQKNLMKFLDNWLWSTAVGPWFRCYILDYHDLSLPQDRDYVRWSREQWFLGGQRLEDVQAGREDRLPLVPPTLEPFRRILAETKWLGGDQPNFADYSALAVFLWTASVARTPPLTEDDPLRDWLDRGFDLFDGLGRHPGMNPLFGLKLREGDPEPFVRQTGPAGAGGQALNKGPQTTKMPPRVAEKAD |  | total activity (beta-etherase) [1, 2]: 7 rfu/ug
12 | LigF2: N. aromaticivorans beta-etherase polypeptide, glutathione S-transferase-like protein, GenBank ABD27301.1 (protein) MALKYYHAEPLANSLKSMVPLKEKGLAYESIYVDLHKFEQHQPWFTAINPEGQVPVLDHDGTIITHTTVINEYLEDAFPDAQPADAPLRPRDPVGAARMRYWNKFIDEHVMNYVSMHGWHRMVGVIARNIASGDFEKLLESIPLPDQRKKWATARSGFSEADLANATAKIEYALDKVEKQLGETKWLAGDTYTLADINFYSHCGAMVERMFPEMEVARRAPRLCEWRDRVAARPAVAEALKSEDRTAPGLRVWSGEVR |  | efficiency relative to S. paucimobilis LigF protein ([1]; MUAV substrate): approximately 2 fold; total activity (beta-etherase) [1, 3]: 1206 rfu/ug
13 | LigF: S. paucimobilis LigF beta-etherase, positive control polypeptide (protein) MTLKLYSFGPGANSLKPLATLYEKGLEFEQVFVDPSKFEQHSDWFKKINPRGQVPALWHDGKVVTESTVICEYLEDVFPESGNSLRPADPFKRAEMRVWTKWVDEYFCWCVSTIGWAFGIKAIAQKMSDEEFEEHINKNVPIPEQQLKWRRARNGFPQEMLDEEFRKVGVSVARLEETLSKQDYLVDTGYSLADICNFAIANGLQRPGGFFGDYVNQEKTPGLCAWLDRINARPAIKEMFEKSKREDLLKRQNEKVA |  | total activity (beta-etherase) [1, 3]: 558 rfu/ug
